Reference: ChEMBL document CHEMBL1201862, “PubChem BioAssay data set” (2004)
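The compound was tested at five concentrations on cells cultured in 96-well plates, with a 48-hour exposure period. GI50 is the concentration that inhibits growth by half.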 Activity calls are given as the source filed them. No stated cut-off is given here; in the data, active = GI50 up to about 1.1 µM and inactive = higher.

Experiments:
Experiment in all cases: NCI anticancer screen, dose series, 48 h
MCF7 = tested on: MCF7
SF-539 = tested on: SF-539
NCI-H460 = tested on: NCI-H460
OVCAR-3 = tested on: OVCAR-3
UACC-257 = tested on: UACC-257
CCRF-CEM = tested on: CCRF-CEM
HCT-15 = tested on: HCT-15
RPMI-8226 = tested on: RPMI-8226
HT-29 = tested on: HT-29
KM12 = tested on: KM12
EKVX = tested on: EKVX
A549 = tested on: A549
SW-620 = tested on: SW-620
DU-145 = tested on: DU-145
SR = tested on: SR
TK-10 = tested on: TK-10
786-0 = tested on: 786-0
BT-549 = tested on: BT-549

Row | Structure (SMILES) | GI50 (MCF7) | GI50 (SF-539) | GI50 (NCI-H460) | GI50 (OVCAR-3) | GI50 (UACC-257) | GI50 (CCRF-CEM) | GI50 (HCT-15) [µM] | GI50 (RPMI-8226) | GI50 (HT-29) | GI50 (KM12) | GI50 (EKVX) | GI50 (A549) | GI50 (SW-620) | GI50 (DU-145) | GI50 (SR) | GI50 (TK-10) | GI50 (786-0) | GI50 (BT-549)
1 | CC(C)[Si](CC1=CCCCC12C(=O)N(COCC[Si](C)(C)C)c1ccccc12)(C(C)C)C(C)C (stereo not drawn) | 61 µM (inactive) | 73.1 µM (inactive) | 82.2 µM (inactive) | 39.4 µM (inactive) | 37.6 µM (inactive) | 0.448 µM (active) | > 100 | > 100 µM (inactive) | 51.6 µM (inactive) | > 100 µM (inactive) | 63.8 µM (inactive) | > 100 µM (inactive) | > 100 µM (inactive) | 66.7 µM (inactive) | > 100 µM (inactive) | > 100 µM (inactive) | > 100 µM (inactive) | –
2 | CC(NC(=O)N(C)C)NC(=O)N(C)C | > 10 µM (inactive) | > 10 µM (inactive) | > 10 µM (inactive) | > 10 µM (inactive) | > 10 µM (inactive) | > 10 µM (inactive) | > 10 | > 10 µM (inactive) | > 10 µM (inactive) | > 10 µM (inactive) | > 10 µM (inactive) | > 10 µM (inactive) | > 10 µM (inactive) | > 10 µM (inactive) | > 10 µM (inactive) | > 10 µM (inactive) | > 10 µM (inactive) | –
3 | CCOc1ccc(NC(=O)C(=O)Nn2c(N)nnc2N)cc1 | > 100 µM (inactive) | > 100 µM (inactive) | > 100 µM (inactive) | > 100 µM (inactive) | > 100 µM (inactive) | > 100 µM (inactive) | > 100 | > 100 µM (inactive) | > 100 µM (inactive) | > 100 µM (inactive) | > 100 µM (inactive) | > 100 µM (inactive) | > 100 µM (inactive) | – | > 100 µM (inactive) | > 100 µM (inactive) | > 100 µM (inactive) | > 100 µM (inactive)
4 | CCOC(=O)c1nc2ccc(C(F)(F)F)cc2nc1Oc1cc(OC)c(OC)c(OC)c1 | > 100 µM (inactive) | 62.2 µM (inactive) | 42.5 µM (inactive) | > 100 µM (inactive) | 40.4 µM (inactive) | > 10 µM (inactive) | 72.9 | > 100 µM (inactive) | 78.2 µM (inactive) | 40.2 µM (inactive) | 35.3 µM (inactive) | 53.7 µM (inactive) | 47.8 µM (inactive) | 46.8 µM (inactive) | – | 75.3 µM (inactive) | 13.5 µM (inactive) | > 100 µM (inactive)
5 | CN(C)CC(O)c1ccc(Cl)c2ccccc12 (stereo not drawn) | 32.7 µM (inactive) | 50.1 µM (inactive) | 31.2 µM (inactive) | > 91 µM (inactive) | 20.9 µM (inactive) | 20 µM (inactive) | > 90.2 | 3.08 µM (inactive) | 50 µM (inactive) | 50.4 µM (inactive) | > 100 µM (inactive) | > 77.6 µM (inactive) | > 83.9 µM (inactive) | > 96.8 µM (inactive) | – | 34.3 µM (inactive) | 48.3 µM (inactive) | 57.1 µM (inactive)
6 | O=c1[nH]nc(Cc2ccccc2)n1/N=C\CC/C=N\n1c(Cc2ccccc2)n[nH]c1=O | 30 µM (inactive) | 19 µM (inactive) | – | 61.7 µM (inactive) | > 100 µM (inactive) | 12.5 µM (inactive) | 19.9 | 21.5 µM (inactive) | 23.4 µM (inactive) | > 100 µM (inactive) | 36.6 µM (inactive) | > 100 µM (inactive) | 36.3 µM (inactive) | 43.5 µM (inactive) | 9.77 µM (inactive) | > 100 µM (inactive) | 29.5 µM (inactive) | 25.8 µM (inactive)
7 | Cc1ccc(/N=N/c2c(O)ccc3cc(S(=O)(=O)O)ccc23)c(C)c1 | > 100 µM (inactive) | > 100 µM (inactive) | > 100 µM (inactive) | > 100 µM (inactive) | > 100 µM (inactive) | > 100 µM (inactive) | > 100 | – | > 100 µM (inactive) | > 100 µM (inactive) | > 100 µM (inactive) | > 100 µM (inactive) | > 100 µM (inactive) | > 100 µM (inactive) | > 100 µM (inactive) | > 100 µM (inactive) | > 100 µM (inactive) | > 100 µM (inactive)
8 | COc1ccc2c(=O)c(O)c(-c3ccc(OC)c(OC)c3)oc2c1 | 3.74 µM (inactive) | – | 3.35 µM (inactive) | 2.84 µM (inactive) | 6.76 µM (inactive) | 2.36 µM (inactive) | 3.5 | 4.09 µM (inactive) | 4.92 µM (inactive) | – | 6.95 µM (inactive) | 4.92 µM (inactive) | 4.97 µM (inactive) | 4.04 µM (inactive) | 4.08 µM (inactive) | 4.91 µM (inactive) | – | –
